These results are taken from patent publication US6063803A, “Octahydropyrrolo-[3,4-c]carbazoles useful as analgesic agents” (Ortho-McNeil Pharmaceutical, Inc., priority 1999, dated 2000).

A word on the Ki: it is a measure of affinity in units of concentration, obtained from inhibition or displacement. A higher Ki goes with lower affinity. By ED50 is commonly meant the dose at which the effect has come halfway, by size or by number of responders.

The target of one assay is T1, α2-adrenergic receptor (Rattus norvegicus, UniProt P22909).
T1 construct: aliquots of the synaptic membrane fraction, the ligand; from tissue; host or cells: cerebral cortex synaptic membranes of male Wistar rats
T1 sequence (P22909 1-465): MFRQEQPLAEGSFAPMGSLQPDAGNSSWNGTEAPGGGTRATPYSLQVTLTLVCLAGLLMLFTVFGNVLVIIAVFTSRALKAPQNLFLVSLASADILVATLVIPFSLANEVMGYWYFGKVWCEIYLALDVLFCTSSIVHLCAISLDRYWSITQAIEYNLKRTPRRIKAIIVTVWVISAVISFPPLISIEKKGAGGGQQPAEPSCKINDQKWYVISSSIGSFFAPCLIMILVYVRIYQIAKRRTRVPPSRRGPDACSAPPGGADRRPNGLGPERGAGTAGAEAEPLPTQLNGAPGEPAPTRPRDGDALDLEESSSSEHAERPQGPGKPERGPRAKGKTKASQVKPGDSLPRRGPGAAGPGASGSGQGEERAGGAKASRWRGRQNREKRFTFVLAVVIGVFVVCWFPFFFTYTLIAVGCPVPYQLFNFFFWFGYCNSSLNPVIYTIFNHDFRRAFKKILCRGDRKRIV
The assay is described as follows: α2-adrenergic receptor binding (3H-para-aminoclonidine, rat cortex synaptic membranes). Conditions: 25° C., 20 min. Further details: species or system rat (Wistar). The procedure: The α2 -adrenergic activity of the compounds was determined by the following in vitro assay. Male, Wistar rats (150-250 g, VAF, Charles River, Kingston, N.Y.) were sacrificed by cervical dislocation and their brains removed and immediately placed in ice cold HEPES buffered sucrose. The cortex was dissected out and homogenized in 20 volumes of HEPES sucrose in a Teflon®-glass homogenizer. The homogenate was centrifuged at 1000×g for 10 min, and the resulting supernatant centrifuged at 42,000×g for 10 min. The resulting pellet was resuspended in 30 volumes of 3 mM potassium phosphate buffer, pH 7.5, preincubated at 25° C. for 30 min and recentrifuged. The resulting pellet was resuspended as described above and used for the receptor binding assay. Incubation was performed in test tubes containing phosphate buffer, 2.5 mM MgCl2, aliquots of the synaptic membrane fraction, the ligand ^3 H-para-aminoclonidine and test drug at 25° C. for 20 min. The incubation was terminated by filtration of the tube contents through glass fiber filter sheets. The sheets were washed with 10 mM HEPES buffer and the adhering radioactivity was quantified by liquid scintillation spectrometry.
Dose-response data are analyzed with LIGAND, a nonlinear curve fitting program designed specifically for the analysis of ligand binding data. […]

Assay [1] is described as follows: mouse acetylcholine bromide-induced abdominal constriction assay. Format: in vivo, mice (Male, Cr1:CD-1). The procedure:
The analgesic activity of compounds of Formula I were determined in the following in vivo assay. The procedure was run essentially as described by H. Collier et al. in B. J. Pharmacol. Chemother., 32: 295-310, 1968, with minor modifications. Mice (Male, Cr1:CD-1, Charles River Laboratories) were used in the following example. The test drugs or appropriate vehicle were administered orally (10 mL/kg, p.o.) or subcutaneously (10 mL/kg, s.c.) and 30 minutes later the animal received an intraperitoneal (i.p.) injection of 5.5 mg/kg acetylcholine bromide. The mice were then placed in glass bell jars and observed for a ten minute observation period for the occurrence of an abdominal constriction response (defined as a wave of constriction and elongation passing caudally along the abdominal wall, accompanied by a twisting of the trunk and followed by extension of the hind limbs). The percent inhibition of this response to antinociceptive stimulus (equated to % analgesia) was calculated as follows: The % inhibition of response, i.e., % analgesia is equal to the number of non-responding drug-treated animals×100 divided by the number of animals in the group.
The ED50 values and their 95% fiducial limits were determined by a computer assisted probit analysis. […] This effect lasted for 4-5 hours.
Table A lists the % inhibition for some compounds of the invention. Unless otherwise indicated the compounds were administered s.c. at 30 mg/kg. [drawing 63]

Assay [2] is described as follows: rat air-induced writhing (abdominal constriction) assay. Format: in vivo, rats. The note with it: rat air-induced writhing. As for the experimental part: The analgesic activity was determined in another model using rats as the test animal. The procedure was essentially described by P. VonVoightlander et al. in Air-induced Writhing, a Rapid Broad Spectrum Assay for Analgesics, Drug Dev. Res., 2, 577-81, (1982). The test compound or vehicle was administered p.o. (2 mL/kg) and after 30 min, the animals received an i.p. injection of air (10 mL). The animals were placed into individual observation chambers and observed for 30 min for the occurrence of abdominal constriction as defined above. The percent inhibition of this response was calculated as follows. The % inhibition of response, i.e., % analgesia is equal to the number nonresponding drug-treated animals×100 divided by the number of animals in the group. […] This effect lasted for 2-3 hours.
(In general: In writhing tests, fewer writhes than in controls are read as antinociception.)

Assay [3] can be described thus: mouse hot plate assay (48° C.). The class given is in vivo, mice. The note with it: mouse hot plate 48° C. The procedure:
The test was essentially described by N. Eddy and D. Leimbach, Synthetic Analgesics II Dithienylbutenyl- and Dithienylbutylamines, J. Pharmacol. Exp. Ther., 107, 385-93 (1953) and J. O'Callaghan and S. Holtzman, Qualification of the Analgesic Activity of Narcotic Antagonists by a Modified Hot-Plate Procedure, J. Pharmacol. Exp. Ther, 192, 497-505 (1975), with minor modifications. Mice were placed on a heated surface (48° C.) and the time interval (seconds) between placement and a shaking, licking, or tucking of the hind paw was recorded as the predrug latency response. This procedure was repeated 30 minutes after the administration of a test compound (p.o., 10 mL/kg). The percent maximum possible antinociceptive effect (% MPE) was determined using the following formula: % MPE=100×(Test latency-Predrug latency)/(Cutoff time-Predrug Latency), using the predrug latency of each animal and cutoff time established to prevent injury to the animal. The cutoff time was 90s.
The ED50 value and 95% confidence intervals were determined using a computer-assisted linear regression analysis of the dose-response curve, including an analysis of variance test for linearity. Oral dosing of Compound 58 produced an analgesic effect after 15 min. This effect lasted for one hour.
On the technique in general: Hot-plate and tail-flick tests time the reaction to a heat stimulus.

[4] abbreviates: mouse abdominal constriction, oral dosing.

As to `CN1CC2CCc3[nH]c4ccccc4c3C2C1` (single isomer, unassigned) [Compound 58], the Ki on α2-adrenergic receptor worked out at 9.4 nM. The responders at 30 mg/kg in assay [1] (Mus musculus, 0.5 h, 30 mg/kg po, acetylcholine bromide 5.5 mg/kg i.p. 30 min later, read-out: % inhibition @ 30 mg/kg (po)) was found to be 100%. The “analgesic effect observed, time after oral dosing” value in assay [1] (setting [4]) is reported as 15 min; in assay [2] (oral dosing) it was 30 min. Also, the “duration of analgesic effect” value was in the range of 4 to 5 h in assay [1] (setting [4]) and 2 to 3 h in assay [2] (oral dosing). Moreover, the ED50 came to 5.8 mg/kg in assay [1] (mouse acetylcholine abdominal constriction, probit analysis, read-out: ED50); 23.1 mg/kg in assay [2] (po, p.o., read-out: ED50); 14.2 mg/kg in assay [3] (po, 0.5 h, p.o., cutoff 90s, read-out: ED50). Besides, the “analgesic effect, time after oral dosing” value in assay [3] (oral dosing) stood at 15 min.
